Here are results for 15 molecules from patent US10519134B2, “Pyrazole compounds and methods of making and using same” (Lundbeck La Jolla Research Center, Inc., priority 2015, dated 2019).

Format in all cases: biochemical
Test [1] addresses T1, MAGL (Mus musculus, UniProt O35678).
T1 construct: Proteomes (mouse brain membrane fraction or cell lysates); from tissue; host or cells: mouse brain membrane fraction (or cell lysates)
T1 sequence (O35678 1-303): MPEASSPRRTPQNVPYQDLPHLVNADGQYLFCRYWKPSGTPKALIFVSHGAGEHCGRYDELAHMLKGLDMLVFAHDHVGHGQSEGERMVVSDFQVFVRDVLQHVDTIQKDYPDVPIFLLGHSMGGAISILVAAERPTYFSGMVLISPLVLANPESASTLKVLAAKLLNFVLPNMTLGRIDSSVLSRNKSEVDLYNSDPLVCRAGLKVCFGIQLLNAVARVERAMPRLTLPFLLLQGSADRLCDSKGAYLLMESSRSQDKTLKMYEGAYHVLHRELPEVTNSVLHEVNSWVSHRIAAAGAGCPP
The test can be described thus: In vitro competitive activity-based protein profiling (mouse), MAGL gel band. The note with it: for inhibition at 1 µM: read-out: MAGL % inh. 1 μM; for pIC50: mouse. The method in brief:
(§1)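 Mouse brain membrane proteome or cell lysate (1.0 mg/mL protein) preincubated 30 min at 37 °C with varying inhibitor concentrations, then labelled 30 min at 37 °C with FP-Rh or HT-01 probe (50 μM stock). After SDS-PAGE, activity taken from fluorescent intensity of the MAGL and FAAH gel bands.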

In the next test the target is T2, FAAH (Mus musculus, UniProt O08914).
T2 construct: Proteomes (mouse brain membrane fraction or cell lysates); from tissue; host or cells: mouse brain membrane fraction (or cell lysates)
T2 sequence (O08914 1-579): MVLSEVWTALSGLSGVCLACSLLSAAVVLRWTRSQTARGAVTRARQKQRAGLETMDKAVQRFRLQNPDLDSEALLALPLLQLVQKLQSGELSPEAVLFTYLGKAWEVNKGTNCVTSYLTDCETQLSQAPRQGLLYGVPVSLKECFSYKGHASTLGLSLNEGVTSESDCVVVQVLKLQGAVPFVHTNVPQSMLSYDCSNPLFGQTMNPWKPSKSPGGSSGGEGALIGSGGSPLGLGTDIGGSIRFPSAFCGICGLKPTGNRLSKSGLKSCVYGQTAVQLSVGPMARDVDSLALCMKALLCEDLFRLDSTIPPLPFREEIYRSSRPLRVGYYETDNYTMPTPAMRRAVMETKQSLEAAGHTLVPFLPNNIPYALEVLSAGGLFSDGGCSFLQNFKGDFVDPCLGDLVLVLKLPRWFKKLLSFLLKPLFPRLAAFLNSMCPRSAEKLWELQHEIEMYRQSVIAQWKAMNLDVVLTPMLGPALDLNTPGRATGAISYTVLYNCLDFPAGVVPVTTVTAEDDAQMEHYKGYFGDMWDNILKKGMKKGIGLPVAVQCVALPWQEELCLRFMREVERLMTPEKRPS
The test can be described thus: In vitro competitive activity-based protein profiling (mouse), FAAH gel band. The note with it: for inhibition at 1 µM: read-out: FAAH % inh. 1 μM; for pIC50: mouse. A digest of the protocol: as §1

Test [2] addresses T3, MAGL (Homo sapiens, UniProt Q99685).
T3 construct: Proteomes (human prefrontal cortex or cell membrane fractions); from tissue; host or cells: human prefrontal cortex (or cell membrane fractions)
T3 sequence (Q99685 1-303): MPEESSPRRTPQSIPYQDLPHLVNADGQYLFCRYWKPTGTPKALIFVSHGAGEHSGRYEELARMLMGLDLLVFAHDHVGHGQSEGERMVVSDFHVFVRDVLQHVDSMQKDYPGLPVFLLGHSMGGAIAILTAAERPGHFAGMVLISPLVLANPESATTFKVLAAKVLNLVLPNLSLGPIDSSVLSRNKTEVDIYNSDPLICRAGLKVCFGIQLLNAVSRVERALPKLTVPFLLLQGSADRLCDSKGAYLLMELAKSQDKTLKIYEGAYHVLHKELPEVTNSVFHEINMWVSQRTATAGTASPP
The test can be described thus: In vitro competitive activity-based protein profiling (human), MAGL gel band. The method in brief: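 Human prefrontal cortex or cell membrane proteomes (1.0-2.0 mg/mL protein) preincubated with inhibitors 30 min at 37° C, then labelled with FP-Rh or JW912 probe 30 min at room temperature. Residual MAGL activity read as fluorescent gel-band intensity after SDS-PAGE.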

pIC50: −log10 of the molar value.

For `CN(C)C(=O)C1CCN(c2cc(C(F)(F)F)ccc2CN2CCN(C(=O)n3ccc(NS(C)(=O)=O)n3)CC2)CC1` [Example 231, N,N-dimethyl-1-(2-((4-(3-(methylsulfonamido)-1H-pyrazole-1-carbonyl)piperazin-1-yl)methyl)-5-(trifluoromethyl)phenyl)piperidine-4-carboxamide], the inhibition at 1 µM on MAGL [1] was not below 75%; at FAAH, 0 to 25%. For the same molecule, on MAGL [2], the pIC50 is not below 7.00.
For `CS(=O)(=O)Nc1ccn(C(=O)N2CCN(Cc3ccc(C(F)(F)F)cc3N3CCC4(CC3)CCN(S(C)(=O)=O)C4)CC2)n1` [Example 234, N-(1-(4-(2-(2-(methylsulfonyl)-2,8-diazaspiro[4.5]decan-8-yl)-4-(trifluoromethyl)benzyl)piperazine-1-carbonyl)-1H-pyrazol-3-yl) methanesulfonamide] the same measures were not below 75%, 0 to 25% and not below 7.00.
The corresponding values for `CS(=O)(=O)Nc1ccn(C(=O)N2CCN(Cc3ccc(C(F)(F)F)cc3N3CCC4(CCN(S(C)(=O)=O)CC4)C3)CC2)n1` [Example 235, N-(1-(4-(2-(8-(methylsulfonyl)-2,8-diazaspiro[4.5]decan-2-yl)-4-(trifluoromethyl)benzyl)piperazine-1-carbonyl)-1H-pyrazol-3-yl) methanesulfonamide] are not below 75%, 0 to 25% and not below 7.00.
With `CS(=O)(=O)Nc1ccn(C(=O)N2CCN(Cc3ccc(Cl)c(N4CCCCC4)c3)CC2)n1` [Example 236, N-(1-(4-(4-chloro-3-(piperidin-1-yl)benzyl)piperazine-1-carbonyl)-1H-pyrazol-3-yl) methanesulfonamide], the inhibition at 1 µM at MAGL [1] is not below 75%; at FAAH, 0 to 25%. The molecule also showed a pIC50 on MAGL [2] not below 7.00.
The corresponding values for `CC(C)n1cc(-c2cc(CN3CCN(C(=O)n4ccc(NS(C)(=O)=O)n4)CC3)ccc2Cl)cn1` [Example 237, N-(1-(4-(4-chloro-3-(1-isopropyl-1H-pyrazol-4-yl)benzyl)piperazine-1-carbonyl)-1H-pyrazol-3-yl) methanesulfonamide] are not below 75%, 0 to 25% and not below 7.00.
`CS(=O)(=O)Nc1ccn(C(=O)N2CCN(Cc3ccc(C(F)(F)F)cc3N3CCC(c4nnn[nH]4)CC3)CC2)n1` [Example 240, N-(1-(4-(2-(4-(1H-tetrazol-5-yl)piperidin-1-yl)-4-(trifluoromethyl)benzyl)piperazine-1-carbonyl)-1H-pyrazol-3-yl) methanesulfonamide]: the inhibition at 1 µM is not below 75% on MAGL [1] and 0 to 25% at FAAH. On MAGL [2], this molecule gave a pIC50 of 6.00 to 7.00.
For `CS(=O)(=O)Nc1ccn(C(=O)N2CCN(Cc3ccc(C(F)(F)F)cc3N3CCC(C(N)=O)CC3)CC2)n1` [Example 250, 1-(2-((4-(3-(methylsulfonamido)-1H-pyrazole-1-carbonyl)piperazin-1-yl)methyl)-5-(trifluoromethyl)phenyl)piperidine-4-carboxamide] the same measures were not below 75%, 0 to 25% and not below 7.00.
For `Cc1cc(CN2CCCC23CCN(C(=O)n2ccc(NC(=O)C(F)F)n2)CC3)ccc1Cl` [Example 257, N-(1-(1-(4-chloro-3-methylbenzyl)-1,8-diazaspiro[4.5]decane-8-carbonyl)-1H-pyrazol-3-yl)-2,2-difluoroacetamide], the inhibition at 1 µM at MAGL [1] was not below 75%; on FAAH it was 0 to 25%. Moreover, the pIC50 at MAGL [2] is not below 7.00.
`CC(=O)Nc1ccn(C(=O)N2CCN(Cc3ccc(C(F)(F)F)cc3N3CCC(C(C)(C)O)CC3)CC2)n1` [Example 266, N-(1-(4-(2-(4-(2-hydroxypropan-2-yl)piperidin-1-yl)-4-(trifluoromethyl)benzyl)piperazine-1-carbonyl)-1H-pyrazol-3-yl)acetamide]: the pIC50 was not below 7.00 at MAGL [1], 5.00 to 6.00 at FAAH and not below 7.00 at MAGL [2]. Moreover, the values for the inhibition at 1 µM on MAGL [1] and on FAAH were not below 75% and 0 to 25%, respectively.
For `CC(=O)Nc1ccn(C(=O)N2CCN(Cc3ccc(C(F)(F)F)cc3N3CCN4CCC[C@H]4C3)CC2)n1` [Example 267, (S)-N-(1-(4-(2-(hexahydropyrrolo[1,2-a]pyrazin-2(1H)-yl)-4-(trifluoromethyl)benzyl)piperazine-1-carbonyl)-1H-pyrazol-3-yl)acetamide], the pIC50 is not below 7.00 at MAGL [1], 5.00 to 6.00 at FAAH and not below 7.00 on MAGL [2]. For the same molecule, the inhibition at 1 µM was not below 75% on MAGL [1] and 0 to 25% on FAAH.
Regarding `CC(=O)Nc1ccn(C(=O)N2CCN(Cc3ccc(C(F)(F)F)cc3N3CCN4CCC[C@@H]4C3)CC2)n1` [Example 268, (R)-N-(1-(4-(2-(hexahydropyrrolo[1,2-a]pyrazin-2(1H)-yl)-4-(trifluoromethyl)benzyl)piperazine-1-carbonyl)-1H-pyrazol-3-yl)acetamide], the pIC50 on MAGL [1] was not below 7.00; on FAAH, 5.00 to 6.00; at MAGL [2], not below 7.00. The inhibition at 1 µM on MAGL [1] was not below 75%; on FAAH it was 0 to 25%.
As to `CC(=O)NC1CCN(c2cc(C(F)(F)F)ccc2CN2CCN(C(=O)n3ccc(NS(C)(=O)=O)n3)CC2)CC1` [Example 269, N-(1-(2-((4-(3-(methylsulfonamido)-1H-pyrazole-1-carbonyl)piperazin-1-yl)methyl)-5-(trifluoromethyl)phenyl)piperidin-4-yl)acetamide], the pIC50 at MAGL [1] is not below 7.00; on FAAH it was 5.00 to 6.00; at MAGL [2] it was not below 7.00. The inhibition at 1 µM at MAGL [1] is not below 75%; at FAAH it was 0 to 25%.
In the case of `CC(C)(O)C1CCN(c2cc(C(F)(F)F)ccc2CN2CCN(C(=O)n3ccc(NS(C)(=O)=O)n3)CC2)CC1` [Example 270, N-(1-(4-(2-(4-(2-hydroxypropan-2-yl)piperidin-1-yl)-4-(trifluoromethyl)benzyl)piperazine-1-carbonyl)-1H-pyrazol-3-yl) methanesulfonamide], the pIC50 was not below 7.00 at MAGL [1], 5.00 to 6.00 on FAAH and not below 7.00 at MAGL [2]. Also, the inhibition at 1 µM on MAGL [1] is not below 75%; at FAAH, 0 to 25%.
`CS(=O)(=O)Nc1ccn(C(=O)N2CCN(Cc3ccc(C(F)(F)F)c(N4CCC(F)CC4)c3)CC2)n1` [Example 271, N-(1-(4-(3-(4-fluoropiperidin-1-yl)-4-(trifluoromethyl)benzyl)piperazine-1-carbonyl)-1H-pyrazol-3-yl) methanesulfonamide]: the values for the inhibition at 1 µM on MAGL [1] and at FAAH were not below 75% and 0 to 25%, respectively. The same molecule gave a pIC50 on MAGL [2] not below 7.00.
In the case of `CC(=O)Nc1ccn(C(=O)N2CCN(Cc3ccc(C(F)(F)F)cc3C3CCN(CC(=O)O)CC3)CC2)n1` [Example 285, 2-(4-(2-((4-(3-acetamido-1H-pyrazole-1-carbonyl)piperazin-1-yl)methyl)-5-(trifluoromethyl)phenyl)piperidin-1-yl)acetic acid], the inhibition at 1 µM is not below 75% on MAGL [1] and 0 to 25% at FAAH. This molecule had a pIC50 on MAGL [2] not below 7.00.

For orientation: pIC50 means the IC50 on a negative log10 scale, so that one unit is a factor of ten. Read a high pIC50 as a low IC50.
